# According to patent publication US12428370B2, “Haloallylamine dual amine oxidase inhibitors” (Syntara Limited, priority 2020, dated 2025):
# Structures can show the parent of a compound that is named as a salt.
# Assays:
# [1] = target: T1, human recombinant SSAO/VAP-1 (Homo sapiens, UniProt Q16853); test: Inhibition of human recombinant SSAO/VAP-1 (Amplex Red fluorometric assay); format: biochemical; conditions: 30 min incubation, 37° C., benzylamine substrate
# T1 construct: a cloned cDNA template corresponding to residues 34-763 of human SSAO/VAP-1; TEV cleavage site (N); made in house
# T1 sequence (Q16853 34-763): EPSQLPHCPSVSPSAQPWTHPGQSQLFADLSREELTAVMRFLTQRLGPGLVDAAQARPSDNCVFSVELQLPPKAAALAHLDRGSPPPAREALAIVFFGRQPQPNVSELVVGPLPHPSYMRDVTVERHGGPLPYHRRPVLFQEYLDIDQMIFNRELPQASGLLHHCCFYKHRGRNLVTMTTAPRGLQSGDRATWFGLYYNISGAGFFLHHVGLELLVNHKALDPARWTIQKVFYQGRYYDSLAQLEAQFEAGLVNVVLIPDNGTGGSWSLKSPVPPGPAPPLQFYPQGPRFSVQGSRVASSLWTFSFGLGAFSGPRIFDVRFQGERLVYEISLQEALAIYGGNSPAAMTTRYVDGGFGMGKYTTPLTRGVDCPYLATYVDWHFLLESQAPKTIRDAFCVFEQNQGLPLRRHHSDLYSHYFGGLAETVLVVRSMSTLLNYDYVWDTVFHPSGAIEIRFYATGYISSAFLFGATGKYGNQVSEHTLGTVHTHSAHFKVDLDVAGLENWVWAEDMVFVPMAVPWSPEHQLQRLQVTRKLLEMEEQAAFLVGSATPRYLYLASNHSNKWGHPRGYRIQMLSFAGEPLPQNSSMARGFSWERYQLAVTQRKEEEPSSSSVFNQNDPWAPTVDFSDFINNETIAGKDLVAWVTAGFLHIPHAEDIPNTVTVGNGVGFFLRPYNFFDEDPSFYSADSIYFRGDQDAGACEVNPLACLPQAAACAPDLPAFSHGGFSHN
# Method: Method to Determine the Ability of Compounds of Formula I to Inhibit Human Recombinant SSAO/VAP-1
# Human recombinant SSAO/VAP-1 amine oxidase activity was determined using the method as described for monoamine oxidase, copper-containing amine oxidases and related enzymes (Holt A. and Palcic M., Nat. Protoc. 2006, 1, 2498-2505). Briefly, a cloned cDNA template corresponding to residues 34-763 of human SSAO/VAP-1, and incorporating a mouse Ig kappa (κ) signal sequence, N-terminal flag epitope tag and tobacco etch virus (TEV) cleavage site, was assembled in a mammalian expression vector (pLO-CMV) by Geneart AG. This vector containing human SSAO/VAP-1 residues was transfected into CHO-K1 glycosylation mutant cell line, Lec 8. A clone stably expressing human SSAO/VAP-1 was isolated and cultured in large scale. Active human SSAO/VAP-1 was purified and recovered using immunoaffinity chromatography. This was used as the source for SSAO/VAP-1 activity. A high-throughput colorimetric assay was developed using either 96 or 384 well format. Briefly, in a standard 96 well plate assay 50 μL of purified human SSAO/VAP-1 (0.25 μg/mL) in 0.1 M sodium phosphate buffer (pH 7.4) was added into each well. […] After 30 min incubation, 50 μL of the reaction mixture containing 600 μM benzylamine (Sigma Aldrich), 120 μM Amplex Red (Sigma Aldrich) and 1.5 U/mL horseradish peroxidase (Sigma Aldrich) prepared in 0.1 M sodium phosphate buffer (pH 7.4) were added to the corresponding well. The fluorescence unit (RFU) was read every 2.5 min for 30 min at 37° C. excitation 565 nm and emission 590 nm (Optima; BMG labtech). The slope of the kinetics for each well was calculated using MARS data analysis software (BMG labtech) and this value was used to deduce the IC50 value (Dotmatics).
# [2] = tested on: cytochrome P450 (1A2, 2B6, 2C8, 2C9, 2C19, 2D6, 3A4); 44 enzymes, receptors, ion channels and transporters; 13 common transporters; 7 cardiac ion channel …; test: Off-target profile (cytochrome P450, Safety Screen panel, Transporter panel, Cardiac Ion Channel panel); conditions: all assays: CYP at 30 μM, panels at 10 μM, cardiac ion channels up to 300 μM
# Method: Assessment of the off-target profile of Compound 1 using standardized commercially available methods (available through contract research organizations such as Eurofins Panlabs Inc, (https://www.eurofinsdiscoveryservices.com/services/in-vitro-assays/) or Evotec SE, (https://www.evotec.com/en/execute/integrated-pre-clinical-development/adme)).
# The potential for off-target promiscuity in vivo was evaluated in vitro using the following assays:
# Inhibition of cytochrome P450 activity (30 μM single concentration; 1A2, 2B6, 2C8, 2C9, 2C19, 2D6, 3A4)
# Eurofins Discovery Safety Screen panel of 44 enzymes, receptors, ion channels and transporters (percentage inhibition at 10 μMconcentration).
# Eurofins Transporter Protein Screen panel of 13 common transporters (percentage inhibition at 10 μM concentration).
# Aptuit Cardiac Ion Channel panel of 7 targets (automated patch clamp assay; concentration 0 up to 300 μM).
# [3] = Pharmacokinetic study in Wistar rats, oral gavage; format: in vivo; conditions: oral gavage at 3 mg/kg, plasma, FIG. 1
# Method: Pharmacokinetic (PK) studies were carried out at Sundia MediTech Co. Ltd., Shanghai. […] At various times between 15 minutes and 8 hours, blood samples were collected by tail vein bleed. Plasma was analyzed by high performance liquid chromatography-tandem mass spectrometry using a Shimadzu LC30AD HPLC and a QTRAP 5500 mass spectrometer. The time course and basic PK parameters thus obtained are outlined in FIG. 1.
# [4] = tested on: BALB/c mice, carrageenan air pouch; test: Carrageenan air pouch model; format: in vivo; conditions: single oral application 1 h before carrageenan, read 4 h after, vs carrageenan-treated mice, FIG. 4
# Method: On day 0, BALB/c mice were shaved at the nape of the neck, anesthetized and 6 mL air sterile (0.2 μm, Sartorius, Cat. 16532) was injected subcutaneously using a 23G×1½ inch needle fixed to a 6 mL syringe. The injection site was sealed with flexible collodion (Macron, Cat. 4580-02). On day 3 a further 3 mL of sterile air was injected into the neck.
# 3% λ-carrageenan was prepared by dissolving 1.8 g λ-carrageenan (FLUKA, Cat. 22049, lot 1408463) in 60 mL hot de-ionized water. Once dissolved, the solution was cooled to room temperature and the volume made up to 60 mL with de-ionized water.
# On day six, PXS-5131 in PBS (vehicle) or PBS only were administered by oral gavage to the mice. One hour after administration, mice were injected with 1 mL 3% λ-carrageenan, using a 23G×2 inch needle fitted to a 1 mL syringe, directly into the air pouch. Sham animals were administered 1 mL de-ionized water instead of λ-carrageenan solution.
# Four hours after carrageenan/de-ionized water injection, the mice were anesthetized and 3 mL 10 U/mL heparinized saline was injected into the air pouch. The air pouch was gently massaged, the contents immediately removed using an 18G×1 inch needle fitted to a 5 mL syringe, and the exudate volume recorded. An aliquot of the exudate taken for total white blood cell counting; a second aliquot of the exudate was taken for differential white blood cell counts.
Structure (SMILES),IC50 [1] [nM],off-target profile [2],pharmacokinetic profile [3],exudate volume in the air pouch [4],neutrophil count in the air pouch [4]
"N#Cc1ccc(OC/C(=C/F)CN)cc1 [Compound 1, (E)-4-((2-(aminomethyl)-3-fluoroallyl)oxy) benzonitrile]",< 10,favorable off-target profile,,,
"NC/C(=C\F)C1Cc2ccccc2O1 (single isomer, unassigned; (-)) [PXS-5131, (−)-(E)-2-(2,3-Dihydrobenzofuran-2-Yl)-3-Fluoroprop-2-En-1-Amine Hydrochloride]",,,inferior to Compound 1,decrease,decrease
